In brackets after ≈: the same amount, converted by molar mass. Like-named read-outs stand apart in the source and are kept apart here.
Experiments:
Assay type in all cases: cell-based
[1] = test system: Staphylococcus epidermidis EPI1; assay: microbe, parasite or virus in culture
Protocol: (§1) The MIC's in Table II were determined by standard agar-dilution assays. The MIC's in Table III were obtained using a conventional broth-dilution microtiter test.

[2] = test system: Staphylococcus aureus S13E; assay: microbe, parasite or virus in culture
Protocol: as §1

[3] = test system: Klebsiella pneumoniae X26; assay: MIC, standard agar-dilution assay
Protocol: (§2) Certain of the derivatives are active against some gram-negative bacteria, such as Pasteurella species. The MIC's in Table II were determined by standard agar-dilution assays. The MIC's in Table III were obtained using a conventional broth-dilution microtiter test.

[4] = test system: Staphylococcus aureus X1.1; assay: MIC, standard agar-dilution assay
Protocol: as §2

Escherichia coli TEM = assay: MIC, standard agar-dilution assay
Protocol: as §2

[5] = test system: Streptococcus pyogenes 9960; assay: MIC, standard agar-dilution assay
Protocol: as §2

[6] = test system: Streptococcus pneumoniae Park I; assay: MIC, standard agar-dilution assay
Protocol: as §2

[7] = test system: Staphylococcus aureus V41; assay: MIC, standard agar-dilution assay; conditions: Staphylococcus aureus, V41
Protocol: as §2

[8] = test system: Streptococcus Group D X66; assay: MIC, standard agar-dilution assay
Protocol: as §2

Escherichia coli EC14 = assay: MIC, standard agar-dilution assay; conditions: agar-dilution; Escherichia coli EC14; read-out: MIC
Protocol: as §2

[9] = test system: Klebsiella pneumoniae KAE; assay: MIC, standard agar-dilution assay; conditions: agar-dilution; Klebsiella pneumoniae KAE; read-out: MIC
Protocol: as §2

[10] = test system: Haemophilus influenzae C.L.; assay: MIC, standard agar-dilution assay
Protocol: as §1

[11] = test system: Haemophilus influenzae 76; assay: MIC, standard agar-dilution assay
Protocol: as §1

[12] = test system: Staphylococcus epidermidis EPI2; assay: MIC, standard agar-dilution assay
Protocol: as §1

[13] = test system: Staphylococcus aureus X400; assay: MIC, standard agar-dilution assay; conditions: Staphylococcus aureus, X400
Protocol: as §1

Streptococcus sp. 80 = assay: MIC, conventional broth-dilution microtiter test; conditions: broth-dilution microtiter; Streptococcus sp. 80; read-out: MIC
Protocol: as §2

[14] = test system: Pasteurella multocida 17E; assay: MIC, conventional broth-dilution microtiter test; conditions: broth-dilution microtiter; Pasteurella multocida 17E, Bovine isolate; read-out: MIC
Protocol: as §2

[15] = test system: Mycoplasma gallisepticum 41313; assay: MIC, conventional broth-dilution microtiter test; conditions: Mycoplasmoides gallisepticum; broth-dilution microtiter; Mycoplasma gallisepticum 41313, Resistant strain; read-out: MIC
Protocol: as §2

[16] = test system: Mycoplasma gallisepticum 34159; assay: MIC, conventional broth-dilution microtiter test; conditions: Mycoplasmoides gallisepticum; broth-dilution microtiter; Mycoplasma gallisepticum 34159, Resistant strain; read-out: MIC
Protocol: as §2

[17] = test system: Pasteurella multocida 68C; assay: MIC, conventional broth-dilution microtiter test; conditions: broth-dilution microtiter; Pasteurella multocida 68C; read-out: MIC
Protocol: as §2

[18] = test system: Pasteurella hemolytica 41D; assay: MIC, conventional broth-dilution microtiter test; conditions: broth-dilution microtiter; Pasteurella hemolytica 41D; read-out: MIC
Protocol: as §2

[19] = test system: Pasteurella hemolytica 22C; assay: MIC, conventional broth-dilution microtiter test; conditions: broth-dilution microtiter; Pasteurella hemolytica 22C; read-out: MIC
Protocol: as §2

[20] = test system: Pasteurella multocida 22A; assay: MIC, conventional broth-dilution microtiter test; conditions: broth-dilution microtiter; Pasteurella multocida 22A; read-out: MIC
Protocol: as §2

[21] = test system: Pasteurella hemolytica 23C; assay: MIC, conventional broth-dilution microtiter test; conditions: broth-dilution microtiter; Pasteurella hemolytica 23C; read-out: MIC
Protocol: as §2

Mycoplasma hyorhinis = assay: MIC, conventional broth-dilution microtiter test; conditions: broth-dilution microtiter; Mycoplasma hyorhinis; read-out: MIC
Protocol: as §2

Staphylococcus aureus = assay: MIC, conventional broth-dilution microtiter test; conditions: broth-dilution microtiter, read-out: MIC
Protocol: as §2

[22] = test system: Pasteurella multocida 60A; assay: MIC, conventional broth-dilution microtiter test; conditions: broth-dilution microtiter; Pasteurella multocida 60A, Avian isolate; read-out: MIC
Protocol: as §2

Mycoplasma gallisepticum = assay: MIC, conventional broth-dilution microtiter test; conditions: Mycoplasmoides gallisepticum
Protocol: as §2

[23] = test system: Pasteurella multocida 40G; assay: MIC, conventional broth-dilution microtiter test; conditions: broth-dilution microtiter; Pasteurella multocida 40G; read-out: MIC
Protocol: as §2

[24] = test system: Streptococcus pyogenes C203; assay: MIC, standard agar-dilution assay; conditions: agar-dilution; Streptococcus pyogenes C203; read-out: MIC
Protocol: as §2

[25] = Staphylococcus epidermidis, EPI1
[26] = agar-dilution, Klebsiella pneumoniae X26, read-out: MIC
[27] = agar-dilution, Streptococcus pneumoniae Park I, read-out: MIC
[28] = agar-dilution, Staphylococcus epidermidis EPI2, read-out: MIC
[29] = agar-dilution, Escherichia coli TEM, read-out: MIC
[30] = agar-dilution, Streptococcus 9960, read-out: MIC
[31] = agar-dilution, Streptococcus Group D X66, read-out: MIC

Structure (SMILES)	MIC [1, 25] [µg/mL]	MIC [2] [µg/mL]	MIC [3, 26] [µg/mL]	MIC [7] [µg/mL]	MIC (Escherichia coli EC14) [µg/mL]	MIC [9] [µg/mL]	MIC [13] [µg/mL]	MIC (Streptococcus sp. 80) [µg/mL]	MIC [14] [µg/mL]	MIC [15] [µg/mL]	MIC [16] [µg/mL]	MIC [17] [µg/mL]	MIC [18] [µg/mL]	MIC [19] [µg/mL]	MIC [20] [µg/mL]	MIC [21] [µg/mL]	MIC (Mycoplasma hyorhinis) [µg/mL]	MIC (Staphylococcus aureus) [µg/mL]	MIC [22] [µg/mL]	MIC [23] [µg/mL]	further results
CCC1OC(=O)CC(O)C(C)C(OC2OC(C)C(O)C(N(C)C)C2O)C(CCN2C(=O)c3ccccc3C2=O)CC(C)C(=O)C=CC(C)=CC1CO (stereo not shown) [Compound 6, 20-N-Phthalimido-20-deoxy-20-dihydro-OMT]	4 (≈ 5.49 µM)	8 (≈ 11 µM)	16 (≈ 22 µM)	8 (≈ 11 µM)	> 128	> 128	16 (≈ 22 µM)	3.12 (≈ 4.28 µM)	50 (≈ 68.6 µM)	50 (≈ 68.6 µM)	50 (≈ 68.6 µM)	25 (≈ 34.3 µM)	50 (≈ 68.6 µM)	50 (≈ 68.6 µM)	50 (≈ 68.6 µM)	50 (≈ 68.6 µM)	50 (≈ 68.6 µM)	25 (≈ 34.3 µM)	50 (≈ 68.6 µM)	50 (≈ 68.6 µM)	MIC ([4]; agar-dilution, Staphylococcus aureus X1.1, read-out: MIC): 4 µg/mL (≈ 5.49 µM); MIC (Escherichia coli TEM; Escherichia coli): 64 µg/mL (≈ 87.8 µM); MIC [5]; 9960: 16 µg/mL (≈ 22 µM); MIC [6, 27]: 2 µg/mL (≈ 2.74 µM); MIC [8]: 16 µg/mL (≈ 22 µM); MIC ([10]; Haemophilus influenzae): 64 µg/mL (≈ 87.8 µM); MIC ([11]; Haemophilus influenzae, 76): 64 µg/mL (≈ 87.8 µM); MIC [12, 28]: 2 µg/mL (≈ 2.74 µM); MIC (Mycoplasma gallisepticum; broth-dilution microtiter, Mycoplasma gallisepticum, read-out: MIC): 3.12 µg/mL (≈ 4.28 µM)
CCC1OC(=O)CC(O)C(C)C(OC2OC(C)C(OC3CC(C)(O)C(O)C(C)O3)C(N(C)C)C2O)C(CCN2C(=O)c3ccccc3C2=O)CC(C)C(=O)C=CC(C)=CC1CO (stereo not shown) [Compound 17, 20-N-Phthalimido-20-deoxy-20-dihydro-DMT]	–	64 (≈ 73.3 µM)	> 128	64 (≈ 73.3 µM)	> 128	> 128	64 (≈ 73.3 µM)	50 (≈ 57.3 µM)	> 50	50 (≈ 57.3 µM)	50 (≈ 57.3 µM)	> 50	> 50	> 50	> 50	> 50	50 (≈ 57.3 µM)	> 50	> 50	> 50	MIC ([1]; agar-dilution, Staphylococcus epidermidis EPI1, read-out: MIC): 32 µg/mL (≈ 36.7 µM); MIC ([4]; Staphylococcus aureus, X1.1): 64 µg/mL (≈ 73.3 µM); MIC (Escherichia coli TEM; [29]): > 128 µg/mL; MIC [5, 30]: > 128 µg/mL; MIC [24]: 128 µg/mL (≈ 147 µM); MIC [6, 27]: 16 µg/mL (≈ 18.3 µM); MIC [8, 31]: > 128 µg/mL; MIC ([10]; agar-dilution, Haemophilus influenzae C.L., Ampicillin-sensitive strain, read-out: MIC): > 128 µg/mL; MIC ([11]; agar-dilution, Haemophilus influenzae 76, Ampicillin-resistant strain, read-out: MIC): > 128 µg/mL; MIC [12, 28]: 32 µg/mL (≈ 36.7 µM); MIC (Mycoplasma gallisepticum): 12.5 µg/mL (≈ 14.3 µM)
CCC1OC(=O)CC(O)C(C)C(OC2OC(C)C(O)C(N(C)C)C2O)C(CCN2C(=O)c3ccccc3C2=O)CC(C)C(=O)C=CC(C)=CC1C (stereo not shown) [Compound 22, 20-N-Phthalimido-20-deoxy-20-dihydro-DOMT]	8 (≈ 11.2 µM)	8 (≈ 11.2 µM)	–	8 (≈ 11.2 µM)	> 128	> 128	32 (≈ 44.9 µM)	6.25 (≈ 8.77 µM)	50 (≈ 70.1 µM)	50 (≈ 70.1 µM)	50 (≈ 70.1 µM)	25 (≈ 35.1 µM)	50 (≈ 70.1 µM)	50 (≈ 70.1 µM)	50 (≈ 70.1 µM)	50 (≈ 70.1 µM)	25 (≈ 35.1 µM)	25 (≈ 35.1 µM)	50 (≈ 70.1 µM)	50 (≈ 70.1 µM)	MIC ([3]; Klebsiella pneumoniae, X26): 32 µg/mL (≈ 44.9 µM); MIC ([4]; Staphylococcus aureus, X1.1): 8 µg/mL (≈ 11.2 µM); MIC (Escherichia coli TEM; [29]): 128 µg/mL (≈ 180 µM); MIC [5, 30]: 16 µg/mL (≈ 22.4 µM); MIC ([6]; Streptococcus pneumoniae): 4 µg/mL (≈ 5.61 µM); MIC [8, 31]: 16 µg/mL (≈ 22.4 µM); MIC ([10]; Haemophilus influenzae): 128 µg/mL (≈ 180 µM); MIC ([11]; Haemophilus influenzae, 76): 128 µg/mL (≈ 180 µM); MIC ([12]; Staphylococcus epidermidis, EPI2): 4 µg/mL (≈ 5.61 µM); MIC (Mycoplasma gallisepticum): 0.78 µg/mL (≈ 1.09 µM)
